Measured values as given in PMC4686643 (Frontiers in Molecular Neuroscience, 2015).
Like-named read-outs stand apart in the source and are kept apart here. Peptide text beside a SMILES is read from it. * marks the point of attachment. Cbz = O=C(OCc1ccccc1)*

Key:
GlyR α1 G160A = GlyR α1 G160A (Homo sapiens, UniProt P23415, G188A); conditions: 100 μM glycine
Procedure: (§1) HEK293 cells were transiently transfected using a modified calcium-phosphate precipitation method, were a mixture of plasmid DNA, CaCl2, and 2x HBS buffer (50 mM HEPES, 12 mM glucose, 10 mM KCl, 280 mM NaCl, 1.5 mM Na2HPO4) was applied onto the cells.
(§2) Maximal current amplifications (Imax) were measured by the patch clamp technique in a whole-cell configuration mode. Current signals were amplified with an EPC-9 amplifier (HEKA, Lambrecht, Germany). […] The extracellular buffer consisted of 137 mM NaCl, 5.4 mM KCl, 1.8 mM CaCl2, 1 mM MgCl2, […], 10 mM HEPES, with a pH adjusted to 7.4 with NaOH. The internal buffer was 120 mM CsCl, 20 mM N(Et)4Cl, 1 mM CaCl2, 3 mM MgCl2, 11 mM EGTA, 10 mM HEPES with a pH adjusted to 7.4 with CsOH. Recording pipettes were fabricated from borosilicate capillaries with an open resistance of about 4 MΩ. Current responses were measured at a holding potential of −60 mV. All experiments were carried out at room temperature. Error bars refer to S.E.M. values.

GlyR α1 G160R = GlyR α1 G160R (Homo sapiens, UniProt P23415, G188R); conditions: 100 μM glycine
Procedure: as §1, §2

GlyR α1 G160S = GlyR α1 G160S (Homo sapiens, UniProt P23415, G188S); conditions: 100 μM glycine
Procedure: as §1, §2

GlyR α1 T162 mutants = conditions: glycine 3–10 mM
Procedure: as §1, §2

GlyR α1 T162A = GlyR α1 T162A (Homo sapiens, UniProt P23415, T190A); conditions: 100 μM glycine
Procedure: as §1, §2

GlyR α1 T162D = GlyR α1 T162D (Homo sapiens, UniProt P23415, T190D)
Procedure: as §1, §2

GlyR α1 T162M = GlyR α1 T162M (Homo sapiens, UniProt P23415, T190M); conditions: 100 μM glycine
Procedure: as §1, §2

GlyR α1 T162N = GlyR α1 T162N (Homo sapiens, UniProt P23415, T190N); conditions: 100 μM glycine
Procedure: as §1, §2

GlyR α1 T162P = GlyR α1 T162P (Homo sapiens, UniProt P23415, T190P); conditions: 100 μM glycine
Procedure: as §1, §2

GlyR α1 wt = GlyR α1 wt (Homo sapiens, UniProt P23415); conditions: 100 μM glycine
Procedure: as §1, §2

[1] = tested on: GlyR α1 T162M protein in HEK293 cells; assay: Protein degradation analysis on whole cell lysates (Western blot) with proteasome or lysosome inhibitors; assay type: cell-based, human; conditions: for GlyR protein level after lysosomal block: leupeptin 200 μg/mL
Procedure: (§3) HEK293 cells transiently expressing GlyR α1 wt or α1 variants were incubated under standard growth conditions with proteasome or lysosome inhibitors for specific time periods (all inhibitors have been obtained from Sigma-Aldrich, St. Louis, MO, USA). Cells were incubated with 1 μM of MG132 for 1, 2, and 4 h. The lysosome inhibitor leupeptin (200 μg/mL) was incubated for 6, 12, and 24 h together with the transfected cells.
(§4) At each time point, media was aspirated and cells were washed twice with PBS followed by incubation with CytoBuster Protein Extraction Reagent (Merck Millipore, Darmstadt, Germany) supplemented with protease inhibitor for 5 min at room temperature. The resulting cell suspension was centrifuged for 5 min at 16.000 g and 4°C resulting in a supernatant containing solubilized proteins.
(§5) Western Blot Analysis—For SDS-PAGE, 11% polyacrylamide gels were freshly prepared, followed by Western blot on nitrocellulose membranes (GE Healthcare, Freiburg, Germany). Membranes were blocked for 1 h with 5% BSA in TBS-T (TBS with 1% Tween 20). Primary antibodies were incubated overnight at 4°C. GlyR α1 wt and GlyR mutants were detected with the pan-α antibody MAb4a (Synaptic Systems, Göttingen, Germany), recognizing an epitope in the N-terminus of the GlyRs (residues 96–105). In biotinylation experiments, cadherin was chosen as loading control detected by the pan-Cadherin antibody (Cell Signaling Technology, Danvers, MA, USA). For lysate analysis, GAPDH served as a loading control (Calbiochem, Darmstadt, Germany). Signals were detected using the ECLplus system (GE Healthcare, Freiburg, Germany).

[2] = tested on: GlyR α1 wt protein in HEK293 cells; assay: as above; assay type: cell-based, human
Procedure: as §3, §4, §5

Sequence of GlyR α1 T162N (P23415 29-457 T190N): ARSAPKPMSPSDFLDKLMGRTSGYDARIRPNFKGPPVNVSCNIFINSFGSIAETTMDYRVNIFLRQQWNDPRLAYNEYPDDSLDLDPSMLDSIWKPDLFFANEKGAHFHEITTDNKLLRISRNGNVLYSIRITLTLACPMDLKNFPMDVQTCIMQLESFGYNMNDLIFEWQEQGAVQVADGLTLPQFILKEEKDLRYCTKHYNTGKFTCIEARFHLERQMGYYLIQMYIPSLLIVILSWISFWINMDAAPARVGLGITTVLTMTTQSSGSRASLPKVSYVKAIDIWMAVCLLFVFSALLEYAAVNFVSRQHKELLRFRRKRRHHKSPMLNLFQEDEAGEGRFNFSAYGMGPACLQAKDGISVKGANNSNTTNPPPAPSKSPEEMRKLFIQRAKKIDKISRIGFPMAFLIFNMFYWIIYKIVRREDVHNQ
Sequence of GlyR α1 T162D (P23415 29-457 T190D): as the sequence (P23415 29-457 T190N) above, with N162D counted along it
Sequence of GlyR α1 wt (P23415 29-457): as the sequence (P23415 29-457 T190N) above, with N162T counted along it
Sequence of GlyR α1 G160R (P23415 29-457 G188R): as the sequence (P23415 29-457 T190N) above, with G160R, N162T counted along it
Sequence of GlyR α1 T162M (P23415 29-457 T190M): as the sequence (P23415 29-457 T190N) above, with N162M counted along it
Sequence of GlyR α1 T162A (P23415 29-457 T190A): as the sequence (P23415 29-457 T190N) above, with N162A counted along it
Sequence of GlyR α1 G160A (P23415 29-457 G188A): as the sequence (P23415 29-457 T190N) above, with G160A, N162T counted along it
Sequence of GlyR α1 T162P (P23415 29-457 T190P): as the sequence (P23415 29-457 T190N) above, with N162P counted along it
Sequence of GlyR α1 G160S (P23415 29-457 G188S): as the sequence (P23415 29-457 T190N) above, with G160S, N162T counted along it

## NCC(=O)O [glycine]
GlyR α1 G160A; G160A
  Irel current, % of the wt current: 92 ± 12%
GlyR α1 G160A; α1 G160A
  Imax ± SEM: 1453 ± 197 pA
GlyR α1 G160R; G160R
  Irel current, % of the wt current: 69 ± 10%
GlyR α1 G160R; α1 G160R
  Imax ± SEM: 1089 ± 167 pA
GlyR α1 G160S; G160S
  Irel current, % of the wt current: 68 ± 22%
GlyR α1 G160S; α1 G160S
  Imax ± SEM: 1061 ± 359 pA
GlyR α1 T162 mutants
  functionality compared to wt receptors: indistinguishable from wt receptors
GlyR α1 T162A; T162A
  Irel current, % of maximum current of wt: 4 ± 1%
GlyR α1 T162A; α1 T162A
  Imax ± SEM: 148 ± 45 pA
GlyR α1 T162D; T162D, 100 μM glycine, measured in two out of five cells
  Irel current, % of wt currents: less than 1%
GlyR α1 T162D; T162D, saturating glycine 10 mM
  whole cell maximal currents compared to wt: indistinguishable from GlyR α1 wt
GlyR α1 T162D; α1 T162D, 100 μM glycine
  Imax ± SEM: 10 ± 6 pA
GlyR α1 T162M; T162M
  Irel current, % of I100μM compared to wt: 11 ± 5%
GlyR α1 T162M; α1 T162M
  Imax ± SEM: 309 ± 154 pA
GlyR α1 T162N; T162N
  Irel current, % of the wt current: 13 ± 3%
  reduction of the wt response: 85%
GlyR α1 T162N; α1 T162N
  Imax ± SEM: 447 ± 96 pA
GlyR α1 T162P; T162P
  Irel current, % of the wt current: 29 ± 10%
GlyR α1 T162P; α1 T162P
  Imax ± SEM: 832 ± 300 pA
GlyR α1 wt; wt control of the G160 series
  Imax ± SEM: 1571 ± 260 pA
GlyR α1 wt; wt control of the T162 series
  Imax ± SEM: 2916 ± 371 pA

## CC(C)C[C@@H](C=O)NC(=O)[C@H](CC(C)C)NC(=O)[C@H](CC(C)C)NC(=O)OCc1ccccc1 [MG132] (Cbz-Leu-Leu-Leu-aldehyde)
[1]; 1 μM MG132, 2 h, compared to wt
  GlyR protein level after proteasomal block: significant increase
[2]; 1 μM MG132, 2 h
  GlyR protein level after proteasomal block: not affected

## CC(=O)N[C@@H](CC(C)C)C(=O)N[C@@H](CC(C)C)C(=O)N[C@H](C=O)CCCNC(=N)N [leupeptin]
[1]; 6 h
  GlyR protein level after lysosomal block: did not show any differences
[1]; 12 h, in contrast to wt
  GlyR protein level after lysosomal block: reduced protein levels
[2]; leupeptin 200 μg/mL, 12 h
  GlyR protein level after lysosomal block: accumulations
